Assays:
Experiment in all cases: relative viability (nuclei count vs DMSO), 5 days (fraction); higher = more cells survive
LU99A = system: LU99A
Summary of the method: (§1)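 Lung cancer cell lines were seeded in 1536-well plates and dosed by pin tool the next day, with either a single drug or a fixed anchor-drug dose combined with five library-drug doses (not always all listed) spaced in √10 steps. Five days later, one step fixed the cells and stained their nuclei (final 0.05% Triton X-100, 1% formaldehyde, 1 ug/ml Hoechst), and nuclei were counted on 4× images. Relative viability is the nuclei count in treated wells divided by the count in vehicle wells, and each value is the median of duplicate plates.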

NCI-H1563 = system: NCI-H1563
Summary of the method: as §1

NCI-H1395 = system: NCI-H1395
Summary of the method: as §1

HCC-15 = system: HCC-15
Summary of the method: as §1

NCI-H358 = system: NCI-H358
Summary of the method: as §1

LC-2-ad = system: LC-2-ad
Summary of the method: as §1

NCI-H1915 = system: NCI-H1915
Summary of the method: as §1

BEN = system: BEN
Summary of the method: as §1

NCI-H1755 = system: NCI-H1755
Summary of the method: as §1

HOP-62 = system: HOP-62
Summary of the method: as §1

SW 1573 = system: SW 1573
Summary of the method: as §1

HCC-44 = system: HCC-44
Summary of the method: as §1

NCI-H3122 = system: NCI-H3122
Summary of the method: as §1

NCI-H1734 = system: NCI-H1734
Summary of the method: as §1

NCI-H2126 = system: NCI-H2126
Summary of the method: as §1

NCI-H1437 = system: NCI-H1437
Summary of the method: as §1

EMC-BAC-2 = system: EMC-BAC-2
Summary of the method: as §1

NCI-H650 = system: NCI-H650
Summary of the method: as §1

NCI-H727 = system: NCI-H727
Summary of the method: as §1

NCI-H2023 = system: NCI-H2023
Summary of the method: as §1

For Cc1cn(-c2cc(NC(=O)c3ccc(C)c(Nc4nccc(-c5cccnc5)n4)c3)cc(C(F)(F)F)c2)cn1 [Nilotinib] + C[C@]1(O)C[C@@H](c2nc(-c3ccc4ccc(-c5ccccc5)nc4c3)c3c(N)nccn32)C1 [Linsitinib] (partner 1 µM), the relative viability (LU99A; first compound 0.001 µM) was 0.468, the relative viability (LU99A; first compound 0.003162 µM) was 0.59 and the relative viability (LU99A; first compound 0.01 µM) was 0.593. It also gave a relative viability (LU99A; first compound 0.03162 µM) of 0.568, a relative viability (LU99A; first compound 0.1 µM) of 0.318 and a relative viability (NCI-H1563; first compound 0.001 µM) of 1.13. For the same molecule, the relative viability (NCI-H1563; first compound 0.003162 µM) was 1.17, the relative viability (NCI-H1563; first compound 0.01 µM) was 1.17 and the relative viability (NCI-H1563; first compound 0.03162 µM) was 1.15. It also gave a relative viability (NCI-H1395; first compound 0.001 µM) of 1, a relative viability (NCI-H1395; first compound 0.003162 µM) of 0.826 and a relative viability (NCI-H1395; first compound 0.01 µM) of 1.07. For the same molecule, the relative viability (NCI-H1395; first compound 0.03162 µM) was 0.86, the relative viability (NCI-H1395; first compound 0.1 µM) was 0.759 and the relative viability (HCC-15; first compound 0.001 µM) was 0.874. For the same molecule, the relative viability (HCC-15; first compound 0.003162 µM) was 1.01, the relative viability (HCC-15; first compound 0.01 µM) was 0.987 and the relative viability (HCC-15; first compound 0.03162 µM) was 0.743. The relative viability (HCC-15; first compound 0.1 µM) was 0.744, the relative viability (NCI-H358; first compound 0.001 µM) was 0.67 and the relative viability (NCI-H358; first compound 0.003162 µM) was 0.893. The relative viability (NCI-H358; first compound 0.01 µM) was 0.847, the relative viability (NCI-H358; first compound 0.03162 µM) was 0.474 and the relative viability (NCI-H358; first compound 0.1 µM) was 0.612. It also gave a relative viability (LC-2-ad; first compound 0.001 µM) of 0.862, a relative viability (LC-2-ad; first compound 0.003162 µM) of 0.985 and a relative viability (LC-2-ad; first compound 0.01 µM) of 1.02. For the same molecule, the relative viability (LC-2-ad; first compound 0.03162 µM) was 0.897, the relative viability (LC-2-ad; first compound 0.1 µM) was 0.735 and the relative viability (NCI-H1915; first compound 0.001 µM) was 1.01. The relative viability (NCI-H1915; first compound 0.003162 µM) was 1.09, the relative viability (NCI-H1915; first compound 0.03162 µM) was 1.06 and the relative viability (NCI-H1915; first compound 0.1 µM) was 1.09. The relative viability (BEN; first compound 0.001 µM) was 0.95, the relative viability (BEN; first compound 0.003162 µM) was 0.997 and the relative viability (BEN; first compound 0.01 µM) was 1.26. It also gave a relative viability (BEN; first compound 0.1 µM) of 1.05, a relative viability (NCI-H1755; first compound 0.001 µM) of 1.02 and a relative viability (NCI-H1755; first compound 0.003162 µM) of 1.15. It also gave a relative viability (NCI-H1755; first compound 0.01 µM) of 1.12, a relative viability (NCI-H1755; first compound 0.03162 µM) of 1.07 and a relative viability (NCI-H1755; first compound 0.1 µM) of 0.894. It also gave a relative viability (HOP-62; first compound 0.001 µM) of 0.694, a relative viability (HOP-62; first compound 0.003162 µM) of 0.853 and a relative viability (HOP-62; first compound 0.01 µM) of 0.863. It also gave a relative viability (HOP-62; first compound 0.03162 µM) of 0.715, a relative viability (HOP-62; first compound 0.1 µM) of 0.744 and a relative viability (SW 1573; first compound 0.001 µM) of 0.939. It also gave a relative viability (SW 1573; first compound 0.003162 µM) of 0.935, a relative viability (SW 1573; first compound 0.01 µM) of 0.73 and a relative viability (SW 1573; first compound 0.03162 µM) of 0.756. It also gave a relative viability (SW 1573; first compound 0.1 µM) of 0.841, a relative viability (HCC-44; first compound 0.001 µM) of 0.624 and a relative viability (HCC-44; first compound 0.003162 µM) of 0.768. It also gave a relative viability (HCC-44; first compound 0.01 µM) of 0.821, a relative viability (HCC-44; first compound 0.03162 µM) of 0.615 and a relative viability (HCC-44; first compound 0.1 µM) of 0.739. The relative viability (NCI-H3122; first compound 0.001 µM) was 1.16, the relative viability (NCI-H3122; first compound 0.003162 µM) was 1.11 and the relative viability (NCI-H3122; first compound 0.01 µM) was 1.16. It also gave a relative viability (NCI-H3122; first compound 0.03162 µM) of 0.894, a relative viability (NCI-H3122; first compound 0.1 µM) of 0.833 and a relative viability (NCI-H1734; first compound 0.001 µM) of 0.882. It also gave a relative viability (NCI-H1734; first compound 0.003162 µM) of 0.977, a relative viability (NCI-H1734; first compound 0.01 µM) of 0.972 and a relative viability (NCI-H1734; first compound 0.03162 µM) of 0.669. It also gave a relative viability (NCI-H1734; first compound 0.1 µM) of 0.561, a relative viability (NCI-H2126; first compound 0.001 µM) of 0.684 and a relative viability (NCI-H2126; first compound 0.003162 µM) of 0.806. It also gave a relative viability (NCI-H2126; first compound 0.01 µM) of 0.827, a relative viability (NCI-H2126; first compound 0.03162 µM) of 0.779 and a relative viability (NCI-H2126; first compound 0.1 µM) of 0.666. It also gave a relative viability (NCI-H1437; first compound 0.001 µM) of 0.879, a relative viability (NCI-H1437; first compound 0.003162 µM) of 1.19 and a relative viability (NCI-H1437; first compound 0.01 µM) of 1.24. For the same molecule, the relative viability (NCI-H1437; first compound 0.03162 µM) was 0.747, the relative viability (NCI-H1437; first compound 0.1 µM) was 0.755 and the relative viability (EMC-BAC-2; first compound 0.001 µM) was 0.812. For the same molecule, the relative viability (EMC-BAC-2; first compound 0.003162 µM) was 0.954, the relative viability (EMC-BAC-2; first compound 0.01 µM) was 1.1 and the relative viability (EMC-BAC-2; first compound 0.03162 µM) was 0.66. For the same molecule, the relative viability (EMC-BAC-2; first compound 0.1 µM) was 0.839, the relative viability (NCI-H650; first compound 0.001 µM) was 0.81 and the relative viability (NCI-H650; first compound 0.003162 µM) was 0.778. For the same molecule, the relative viability (NCI-H650; first compound 0.01 µM) was 0.925, the relative viability (NCI-H650; first compound 0.03162 µM) was 0.84 and the relative viability (NCI-H650; first compound 0.1 µM) was 0.686. It also gave a relative viability (NCI-H727; first compound 0.001 µM) of 0.225, a relative viability (NCI-H727; first compound 0.01 µM) of 0.368 and a relative viability (NCI-H727; first compound 0.03162 µM) of 0.275. It also gave a relative viability (NCI-H727; first compound 0.1 µM) of 0.263, a relative viability (NCI-H2023; first compound 0.001 µM) of 0.74 and a relative viability (NCI-H2023; first compound 0.003162 µM) of 0.735. For the same molecule, the relative viability (NCI-H2023; first compound 0.01 µM) was 0.798, the relative viability (NCI-H2023; first compound 0.03162 µM) was 0.666 and the relative viability (NCI-H2023; first compound 0.1 µM) was 0.525.

Source: the supplement of paper PMC10307832
